# Assay results reported in US20250287947A1, “BIOCIDES AND ADHESIVE BINDING THEREOF” (EBERHARD KARLS UNIVERSITÄT TÜBINGEN MEDIZINISCHE FAKULTÄT, priority 2022, published 2025).
# Columns and labels:
# [1] = test system: β-galactosidase-expressing E. coli strain; assay: Wash resistance and biocidal activity of Py-C12 treated beech wood sheets (Example 19); format: cell-based; settings: treated with 1% (w/v) free base; washed with water up to 30 washing steps, 15 min each; E. coli 4 days at 37° C.
# Procedure: In a first step, 1% (w/v) Py-C12 free base in water) was warmed to 50° C. to obtain a liquid solution. After incubation of beech wood sheets with the Py-C12 solution, the samples were cooled to room temperature upon which the liquid Py-C12 was converted into a solid phase and thus immobilized to the material. After drying, samples were washed with water at room temperature […] for 15 minutes each time. Thereafter, all samples were inoculated with a β-galactosidase-expressing E. coli strain and then incubated for 4 days at 37° C.
# [2] = Influence of temperature on the state of matter of Py-C12 free base at different concentrations in water (Example 4); format: physicochemical; design: key: X: liquid; o: solid
# Procedure: 5-N-carboxamido-2-pyrrolidone-N-n-dodecyl propane-1,3-diamine (Py-C12) free base at concentrations of 1% (w/v), 2.5% (w/V), 5% (w/V), 10% (w/V), 20% (w/), 30% (W/), 40% (w/V) were incubated at temperatures between 36° C. and 50° C. (see table 4).
# [3] = Interactions between salt concentration, temperature and pH on the state of matter of Py-C12 (Example 3); format: physicochemical; design: key: X: liquid; o: solid; settings: 5% w/v
# Procedure: […] The samples were combined with NaCl solutions using concentrations between 0 and 3 M in water and subsequently incubated at temperatures between 24° C. and 45° C.
# [4] = test system: β-galactosidase-expressing E. coli strain; assay: Wash resistance and biocidal activity of Py-C12 treated polyester fabric (Example 16); format: cell-based; settings: treated with 5% (w/v) free base, E. coli 3 days at 37° C.
# Procedure: In a first step, 5% (w/v) Py-C12 free base in water was warmed to 50° C. to obtain a liquid solution. After incubation with the Py-C12 solution, the samples were cooled to room temperature upon which the liquid Py-C12 was converted into a solid phase and thus immobilized to the material. After drying, samples were washed with water at room temperature 10, 20, and 30 times for 15 minutes each time. Thereafter, all samples were inoculated with a β-galactosidase-expressing E. coli strain and then incubated for 3 days at 37° C.
# [5] = Influence of pH on state of matter of Py-C12 at 20° C. (Example 1); format: physicochemical; design: key to state of matter: X: liquid; o: solid; settings: for solubility in water / state of matter: 1% (w/v); for state of matter: 1% w/v, 20° C.
# Source text: 1% (w/v) 5-N-carboxamido-2-pyrrolidone-N-n-dodecyl propane-1,3-diamine (Py-C12) free base was adjusted with HCl or NaOH to pH values between 3.0 and 10.0.
# [6] = Modulation of the state of matter by pH shift using HCl and NaOH (Example 7); format: physicochemical
# [7] = Modulation of the state of matter by pH shift using CO2 (Example 8); format: physicochemical
# Source text: 1% (w/v) and 5% (w/v) 5-N-carboxamido-2-pyrrolidone-N-n-dodecyl propane-1,3-diamine (Py-C12) free base solutions in water were gassed with carbon dioxide to reduce the pH from 9.5 to 7. […] After degassing of the CO2-gassed solutions, Py-C12 precipitates due to the increasing pH in a time dependent manner (see FIG. 3, right panel).
structure (smiles),measurement,setting,value
"CCCCCCCCCCCCNCCCNC(=O)C1CCC(=O)N1 (centres unmarked) [Py-C12, 5-N-carboxamido-2-pyrrolidone-N′-n-dodecyl propane-1,3-diamine]",bacterial growth on treated beech wood sheets after washing,[1],Blue coloured bacteria only appear on control sample
same,state of matter,"[2]; free base 1% (w/v) in water, 36° C.",o
same,state of matter,"[2]; free base 1% (w/v) in water, 38° C.",o
same,state of matter,"[2]; free base 1% (w/v) in water, 40° C.",X
same,state of matter,"[2]; free base 1% (w/v) in water, 42° C.",X
same,state of matter,"[2]; free base 1% (w/v) in water, 44° C.",X
same,state of matter,"[2]; free base 1% (w/v) in water, 46° C.",X
same,state of matter,"[2]; free base 1% (w/v) in water, 48° C.",X
same,state of matter,"[2]; free base 1% (w/v) in water, 50° C.",X
same,state of matter,"[2]; free base 2.5% (w/v) in water, 36° C.",o
same,state of matter,"[2]; free base 2.5% (w/v) in water, 38° C.",o
same,state of matter,"[2]; free base 2.5% (w/v) in water, 40° C.",X
same,state of matter,"[2]; free base 2.5% (w/v) in water, 42° C.",X
same,state of matter,"[2]; free base 2.5% (w/v) in water, 44° C.",X
same,state of matter,"[2]; free base 2.5% (w/v) in water, 46° C.",X
same,state of matter,"[2]; free base 2.5% (w/v) in water, 48° C.",X
same,state of matter,"[2]; free base 2.5% (w/v) in water, 50° C.",X
same,state of matter,"[2]; free base 5% (w/v) in water, 36° C.",o
same,state of matter,"[2]; free base 5% (w/v) in water, 38° C.",o
same,state of matter,"[2]; free base 5% (w/v) in water, 40° C.",X
same,state of matter,"[2]; free base 5% (w/v) in water, 42° C.",X
same,state of matter,"[2]; free base 5% (w/v) in water, 44° C.",X
same,state of matter,"[2]; free base 5% (w/v) in water, 46° C.",X
same,state of matter,"[2]; free base 5% (w/v) in water, 48° C.",X
same,state of matter,"[2]; free base 5% (w/v) in water, 50° C.",X
same,state of matter,"[2]; free base 10% (w/v) in water, 36° C.",o
same,state of matter,"[2]; free base 10% (w/v) in water, 38° C.",o
same,state of matter,"[2]; free base 10% (w/v) in water, 40° C.",X
same,state of matter,"[2]; free base 10% (w/v) in water, 42° C.",X
same,state of matter,"[2]; free base 10% (w/v) in water, 44° C.",X
same,state of matter,"[2]; free base 10% (w/v) in water, 46° C.",X
same,state of matter,"[2]; free base 10% (w/v) in water, 48° C.",X
same,state of matter,"[2]; free base 10% (w/v) in water, 50° C.",X
same,state of matter,"[2]; free base 20% (w/v) in water, 36° C.",o
same,state of matter,"[2]; free base 20% (w/v) in water, 38° C.",o
same,state of matter,"[2]; free base 20% (w/v) in water, 40° C.",o
same,state of matter,"[2]; free base 20% (w/v) in water, 42° C.",o
same,state of matter,"[2]; free base 20% (w/v) in water, 44° C.",X
same,state of matter,"[2]; free base 20% (w/v) in water, 46° C.",X
same,state of matter,"[2]; free base 20% (w/v) in water, 48° C.",X
same,state of matter,"[2]; free base 20% (w/v) in water, 50° C.",X
same,state of matter,"[2]; free base 30% (w/v) in water, 36° C.",o
same,state of matter,"[2]; free base 30% (w/v) in water, 38° C.",o
same,state of matter,"[2]; free base 30% (w/v) in water, 40° C.",o
same,state of matter,"[2]; free base 30% (w/v) in water, 42° C.",o
same,state of matter,"[2]; free base 30% (w/v) in water, 44° C.",X
same,state of matter,"[2]; free base 30% (w/v) in water, 46° C.",X
same,state of matter,"[2]; free base 30% (w/v) in water, 48° C.",X
same,state of matter,"[2]; free base 30% (w/v) in water, 50° C.",X
same,state of matter,"[2]; free base 40% (w/v) in water, 36° C.",o
same,state of matter,"[2]; free base 40% (w/v) in water, 38° C.",o
same,state of matter,"[2]; free base 40% (w/v) in water, 40° C.",o
same,state of matter,"[2]; free base 40% (w/v) in water, 42° C.",o
same,state of matter,"[2]; free base 40% (w/v) in water, 44° C.",X
same,state of matter,"[2]; free base 40% (w/v) in water, 46° C.",X
same,state of matter,"[2]; free base 40% (w/v) in water, 48° C.",X
same,state of matter,"[2]; free base 40% (w/v) in water, 50° C.",X
same,state of matter,"[3]; pH 4.0, 28° C., 0.5M NaCl",X
same,state of matter,"[3]; pH 4.0, 28° C., 1.0M NaCl",X
same,state of matter,"[3]; pH 4.0, 28° C., 1.5M NaCl",X
same,state of matter,"[3]; pH 4.0, 28° C., 2.0M NaCl",X
same,state of matter,"[3]; pH 4.0, 28° C., 2.5M NaCl",o
same,state of matter,"[3]; pH 4.0, 28° C., 3.0M NaCl",o
same,state of matter,"[3]; pH 4.0, 28° C., no NaCl",X
same,state of matter,"[3]; pH 9.0, 24 °C, 0.5M NaCl",o
same,state of matter,"[3]; pH 9.0, 24 °C, 1.0M NaCl",o
same,state of matter,"[3]; pH 9.0, 24 °C, 1.5M NaCl",o
same,state of matter,"[3]; pH 9.0, 24 °C, 2.0M NaCl",o
same,state of matter,"[3]; pH 9.0, 24 °C, 2.5M NaCl",o
same,state of matter,"[3]; pH 9.0, 24 °C, 3.0M NaCl",o
same,state of matter,"[3]; pH 9.0, 24 °C, no NaCl",o
same,bacterial growth on treated polyester fabric after washing,[4]; washed 10 times with water 15 min,unstained
same,bacterial growth on treated polyester fabric after washing,[4]; washed 20 times with water 15 min,unstained
same,bacterial growth on treated polyester fabric after washing,[4]; washed 30 times with water 15 min,Blue coloured bacteria
same,solubility in water / state of matter,"[5]; pH values </=7.8, room temperature",completely soluble
same,solubility in water / state of matter,[5]; pH values >/=8,solid substance
same,state of matter,[5]; pH 3.0,X
same,state of matter,[5]; pH 4.0,X
same,state of matter,[5]; pH 5.0,X
same,state of matter,[5]; pH 6.0,X
same,state of matter,[5]; pH 7.0,X
same,state of matter,[5]; pH 7.8,X
same,state of matter,[5]; pH 8.0,o
same,state of matter,[5]; pH 9.0,o
same,state of matter,[5]; pH 10.0,o
same,solubility in water,"[6]; 1% (w/v) free base adjusted with HCl to pH 7, room temperature",completely soluble
same,state of matter after pH increase,"[6]; 1% (w/v), NaOH added to increase pH above 9.0, time dependent",started to precipitate
same,solubility in water,"[7]; 1% and 5% (w/v) free base gassed with CO2, pH from 9.5 to 7, room temperature",completely soluble
same,state of matter after degassing,"[7]; 1% and 5% (w/v), after degassing of CO2, increasing pH, time dependent",precipitates
